Source: patent US10472346B2, “Potent gamma-secretase modulators” (The General Hospital Coporation, priority 2014, dated 2019)

Key:
[1] = system: Aβ40 levels; test: Effects of 9 days treatment on rat plasma and CSF Aβ40 levels; type: in vivo, male Sprague-Dawley rat; conditions: for reduction in CSF Aβ40 levels: rat CSF; for reduction in plasma Aβ40 levels: rat plasma
Experimental: FIG. 6: The effects of Compound 1 after 9-days treatment on Aβ40 levels in male Sprague-Dawley rat plasma A) where the reduction in plasma levels was 61%, 89% and 95%, for dosages of 5, 25, and 50 mg/kg, respectively and in male Sprague-Dawley rat CSF B) where the reduction in CSF levels was 47%, 75% and 85%, for dosages of 5, 25, and 50 mg/kg, respectively.
Effects of Compound 1 (9 Days Treatment) on Rat Plasma and CSF Aβ40 Levels. The effects of Compound 1 after 9-days treatment on Aβ40 levels in rat plasma and CSF are depicted in FIG. 6A (plasma) and FIG. 6B (CSF). For FIG. 6A, the reduction in plasma levels was 61%, 89% and 95%, for dosages of 5, 25, and 50 mg/kg, respectively. For FIG. 6B, the reduction in CSF levels was 47%, 75% and 85%, for dosages of 5, 25, and 50 mg/kg, respectively.

[2] = system: total Aβ peptides; test: Levels of total Aβ peptides, SHSYSY-APP cell-based assay (sandwich ELISA); conditions: concentration response, percent solvent control
Source text: FIG. 8: Representative concentration response curves of Compound 1 using our primary and orthogonal medium throughput SHSYSY-APP cell-based screening assays (10). Compounds are first screened two times in triplicate in our UCSD sandwich Aβ42 ELISA on sequential days and the average of the two assays must be within 3-fold of each other before being entered into the CDD relational database. The UCSD sandwich ELISA assay can easily handle 20 compounds per week. Compounds with Aβ42 IC50 values <100 nM continue through the testing funnel. The Z′ score and the % CV for the UCSD Aβ42 sandwich ELISA assay are 0.8 and 4, respectively. For the Meso Scale triplex assay the Z′ scores are 0.7, 0.9 and 0.6 Aβ42, Aβ40 and Aβ38, respectively and the % CV's are 7, 2 and 1 for Aβ42, Aβ40 and Aβ38, respectively. Aβ total peptides are measured using a sandwich ELISA.
The figure depicts percent solvent control (Aβ40/Aβ42/AβTotal) (left axis) and percent solvent control (Aβ38) again log of, concentration of Compound 1.

[3] = system: Aβ42 levels; test: Effects of 7 days treatment on mouse plasma and brain Aβ42 levels; type: in vivo, male C57BL/6J mouse; conditions: for percent reduction of Aβ42 levels in brain: mouse brain; for percent reduction of Aβ42 levels in plasma: mouse plasma
Experimental: FIG. 2: The effects of Compound 1 after 7-days treatment on Aβ42 levels in male C57BL/6J mouse plasma A) (plasma) where the percent reduction was 76%, 91% and 96% for dosages of 10, 25, and 50 mg/kg, respectively and in male C57BL/6J mouse brain B) where the percent reduction was 36%, 69% and 85% for dosages of 10, 25, and 50 mg/kg, respectively.
Effects of Compound 1 (7 Days Treatment) on Mouse Plasma and Brain Aβ42 Levels. The effects of Compound 1 after 7-days treatment on Aβ42 levels in mouse plasma and brain are depicted in FIG. 2A (plasma) and FIG. 2B (brain). For FIG. 2A, the percent reduction was 76%, 91% and 96% for dosages of 10, 25, and 50 mg/kg, respectively. For FIG. 2B, the percent reduction was 36%, 69% and 85% for dosages of 10, 25, and 50 mg/kg, respectively.

[4] = Plasma concentrations (pharmacokinetics) in male Sprague Dawley rats, iv and po; type: in vivo; conditions: rat
Experimental: FIG. 4. Time course of administration of Compound 1 to male Sprague Dawley rats: iv (1 mg/kg) or po (5 mg/kg). […] Clearance was 89 mL/hr/kg. T1/2 (iv) was 5.9 hrs.
Efficacy Studies in Rat. Plasma Concentrations of Compound 1 in Male Sprague Dawley Rats. FIG. 4 depicts the time course of administration of Compound 1 to male Sprague Dawley rats: iv (1 mg/kg) or [p (5 mg/kg). […] Clearance was 89 mL/hr/kg. T1/2 (iv) was 5.9 hrs.

[5] = system: Notch processing; test: Notch processing in transfected H4-APP751 cells (Western blot, Myc antibody, NICD); type: cell-based, human; conditions: H4-APP751 cells transfected with the NAE construct, different concentrations, 24 hrs
Source text: Cells were harvested 48 hrs post transfection and applied to Western blotting analysis. Myc antibody was utilized to assess the NAED and NICD tagged with Myc on their N-termini. β-Actin was utilized as the loading control.
Cells were harvested 48 hrs post transfection and subjected to Western blotting analysis. Myc antibody was utilized to assess the NδED and NICD tagged with Myc on their N-termini.
Stable H4 human neuroglioma cells over-expressing human APP751, or H4-APP751 cells, were transfected with the NAE construct, and then treated with different concentrations SGSM Compound 1 (Lanes 1-6) or DAPT (Lanes 7-10) for another 24 hrs and are shown in FIG. 9. Cells were harvested 48 hrs post transfection and applied to Western blotting analysis. Myc antibody was utilized to assess the NAED and NICD tagged with Myc on their N-termini β-Actin was utilized as the loading control.
Stably-transfected H4 human neuroglioma cells over-expressing human APP751 (H4-APP751) cells, were transfected with the Notch NδED construct, and then treated with vehicle, or different doses of GSMs (40 nM, 200 nM, 1000 nM, and 5000 nM) for 24 hrs. Cells were harvested 48 hrs post transfection and subjected to Western blotting analysis.

[6] = system: Aβ40 levels; test: Effects of 7 days treatment on mouse plasma and brain Aβ40 levels; type: in vivo, male C57BL/6J mouse; conditions: for percent reduction of Aβ40 levels in brain: mouse brain; for percent reduction of Aβ40 levels in plasma: mouse plasma
Experimental: FIG. 3: The effects of Compound 1 after 7-days treatment on Aβ40 levels in male C57BL/6J mouse plasma A) (plasma) where the percent reduction was 62%, 81% and 91% for dosages of 10, 25, and 50 mg/kg, respectively and male C57BL/6J mouse brain B) where the percent reduction was 46%, 69% and 82% for dosages of 10, 25, and 50 mg/kg, respectively.
Effects of Compound 1 (7 Days Treatment) on Mouse Plasma and Brain Aβ40 Levels. The effects of Compound 1 after 7-days treatment on Aβ40 levels in mouse plasma and brain are depicted in FIG. 3A (plasma) and FIG. 3B (brain). For FIG. 3A, the percent reduction was 62%, 81% and 91% for dosages of 10, 25, and 50 mg/kg, respectively. For FIG. 3B, the percent reduction was 46%, 69% and 82% for dosages of 10, 25, and 50 mg/kg, respectively.

bioavailability ([4]; iv (1 mg/kg) or po (5 mg/kg)): 60.3%
clearance ([4]; iv (1 mg/kg) or po (5 mg/kg)): 0.089 L/h/kg
half-life ([4]; iv (1 mg/kg), read-out: T1/2 (iv) (converted)): 5.9 h
SMILES: COc1nc(-c2cc(C)c(N[C@@H](C)c3ccc(F)cc3)nn2)ccc1-n1cnc(C)c1 [Compound 1, (S)—N-(1-(4-fluorophenyl)ethyl)-6-(6-methoxy-5-(4-methyl-1H-imidazol-1-yl)pyridin-2-yl)-4-methylpyridazin-3-amine]
reduction in CSF Aβ40 levels ([1]; 5 mg/kg): 47%
reduction in CSF Aβ40 levels ([1]; 25 mg/kg): 75%
reduction in CSF Aβ40 levels ([1]; 50 mg/kg): 85%
reduction in plasma Aβ40 levels ([1]; 5 mg/kg): 61%
reduction in plasma Aβ40 levels ([1]; 25 mg/kg): 89%
reduction in plasma Aβ40 levels ([1]; 50 mg/kg): 95%
levels of total Aβ peptides [2]: does not decrease levels of total Aβ peptides
percent reduction of Aβ42 levels in brain ([3]; 10 mg/kg): 36%
percent reduction of Aβ42 levels in brain ([3]; 25 mg/kg): 69%
percent reduction of Aβ42 levels in brain ([3]; 50 mg/kg): 85%
percent reduction of Aβ42 levels in plasma ([3]; 10 mg/kg): 76%
percent reduction of Aβ42 levels in plasma ([3]; 25 mg/kg): 91%
percent reduction of Aβ42 levels in plasma ([3]; 50 mg/kg): 96%
Notch processing (NICD, Western blot) [5]: did not inhibit Notch processing
percent reduction of Aβ40 levels in brain ([6]; 10 mg/kg): 46%
percent reduction of Aβ40 levels in brain ([6]; 25 mg/kg): 69%
percent reduction of Aβ40 levels in brain ([6]; 50 mg/kg): 82%
percent reduction of Aβ40 levels in plasma ([6]; 10 mg/kg): 62%
percent reduction of Aβ40 levels in plasma ([6]; 25 mg/kg): 81%
percent reduction of Aβ40 levels in plasma ([6]; 50 mg/kg): 91%
